Where a name gives a salt, the structure may show the parent alone.
Molecular target: KHK (Homo sapiens (Human), UniProt P50053)
Experiment: In Vitro KHK Enzyme Assay (HTMS);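 further: primary screen measuring inhibition of KHK-catalysed conversion of D-fructose into fructose 1-phosphate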
Type: biochemical
Conditions: 200 μM fructose, 100 μM ATP, 2 nM KHK, 60 min at 25° C.; Fructose-1-P detected by high throughput mass spectrometry

Chain of KHK (P50053 whole entry): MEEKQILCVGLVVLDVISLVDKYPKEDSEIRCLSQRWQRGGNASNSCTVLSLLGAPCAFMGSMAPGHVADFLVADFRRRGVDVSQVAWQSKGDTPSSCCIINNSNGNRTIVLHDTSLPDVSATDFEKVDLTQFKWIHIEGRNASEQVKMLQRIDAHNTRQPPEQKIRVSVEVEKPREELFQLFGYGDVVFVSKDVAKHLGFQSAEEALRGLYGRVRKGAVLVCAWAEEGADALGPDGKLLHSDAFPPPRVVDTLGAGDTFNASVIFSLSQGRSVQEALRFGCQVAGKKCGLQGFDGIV

| Structure (SMILES) | IC50 |
| --- | --- |
| Cc1nn(-c2ccccc2)c2cc(N3CCN(C4CCNCC4)C3=O)ccc12 [Compound 67, 1-(3-Methyl-1-phenyl-1H-indazol-6-yl)-3-(piperidin-4-yl)imidazolidin-2-one hydrochloride] | 1230 nM |
| COc1nn(-c2ccccc2)c2cc(-c3ccc(-n4ccnc4)cc3)ccc12 [Compound 79, 6-(4-(1H-Imidazol-1-yl)phenyl)-3-methoxy-1-phenyl-1H-indazole] | > 30000 nM |
| CSc1nn(-c2ccccc2)c2cc(N3CCN(C4CCNCC4)C3=O)ccc12 [Compound 26, 1-(3-(Methylthio)-1-phenyl-1H-indazol-6-yl)-3-(piperidin-4-yl)imidazolidin-2-one hydrochloride] | 1470 nM |
| CSc1nn(-c2ccc(F)cc2)c2cc(N3CCN(C4CCNCC4)CC3)ccc12 [Compound 135, 1-(4-Fluoro-phenyl)-3-methylsulfanyl-6-(4-piperidin-4-yl-piperazin-1-yl)-1H-indazole] | 1650 nM |
| CSc1nn(-c2ccccc2)c2cc(NC(=O)CCN3CCNCC3)ccc12 [Compound 132, N-(3-Methylsulfanyl-1-phenyl-1H-indazol-6-yl)-3-piperazin-1-yl-propionamide] | 380 nM |
| CSc1nn(-c2ccccc2)c2cc(C(=O)C(=O)N3CCNCC3)ccc12 [Compound 168, 1-(3-Methylsulfanyl-1-phenyl-1H-indazol-6-yl)-2-piperazin-1-yl-ethane-1,2-dione] | 4120 nM |
| CCOc1cc(-c2ccc(N3CC(C)NC(C)C3)cc2)nc2c1c(CC)nn2-c1ccccc1 (stereo not shown) [Compound 104, 6-[4-(3,5-Dimethyl-piperazin-1-yl)-phenyl]-4-ethoxy-3-ethyl-1-phenyl-1H-pyrazolo[3,4-b]pyridine] | 14700 nM |
| CSc1nn(-c2ccccc2)c2cc(C(=O)CC3CCCNC3)ccc12 (stereo not shown) [Compound 161, 1-(3-Methylsulfanyl-1-phenyl-1H-indazol-6-yl)-2-piperidin-3-yl-ethanone] | 6620 nM |
| CSc1nn(-c2cccc(C)c2)c2cc(N3CCN(C4CCNCC4)CC3)ccc12 [Compound 119, 3-Methylsulfanyl-6-(4-piperidin-4-yl-piperazin-1-yl)-1-m-tolyl-1H-indazole] | 380 nM |
| CCc1nn(-c2ccccc2)c2nc(N3CCN(C4CNC4)CC3)ncc12 [Compound 82, 6-(4-Azetidin-3-yl-piperazin-1-yl)-3-ethyl-1-phenyl-1H-pyrazolo[3,4-d]pyrimidine] | 23000 nM |
| CCc1nn(-c2ccccc2)c2cc(N3CCN(C4CNC4)CC3)ccc12 [Compound 44, 6-(4-(azetidin-3-yl)piperazin-1-yl)-3-ethyl-1-phenyl-1H-indazole hydrochloride] | 2400 nM |
| CSc1nn(-c2ccccc2)c2cc(N3CCC(N4CCNCC4)CC3)ccc12 [Compound 20, 3-(Methylthio)-1-phenyl-6-(4-(piperazin-1-yl)piperidin-1-yl)-1H-indazole hydrochloride] | 670 nM |
| Cc1nn(-c2ccccc2)c2cc(N3CCC(N)C3)ccc12 (stereo not shown) [Compound 72, 1-(3-Methyl-1-phenyl-1H-indazol-6-yl)pyrrolidin-3-amine formic acid salt] | 680 nM |
| CSc1nn(-c2ccccc2)c2cc(NC(=O)C3(c4ccccc4)CCNCC3)ccc12 [Compound 172, 4-Phenyl-piperidine-4-carboxylic acid (3-methylsulfanyl-1-phenyl-1H-indazol-6-yl)-amide] | 2150 nM |
| CSc1nn(-c2ccccc2)c2cc(NC(=O)c3ccncc3)ccc12 [Compound 8, N-(3-Methylsulfanyl-1-phenyl-1H-indazol-6-yl)-isonicotinamide] | 1010 nM |
| CSc1nn(-c2ccccc2)c2cc(C(=O)CC3CCCN3)ccc12 (stereo not shown) [Compound 163, 1-(3-Methylsulfanyl-1-phenyl-1H-indazol-6-yl)-2-pyrrolidin-2-yl-ethanone] | 8280 nM |
| Cc1nn(-c2ccccc2)c2cc(N3CCN(C(C)C)CC3)ccc12 [Compound 70, 6-(4-Isopropylpiperazin-1-yl)-3-methyl-1-phenyl-1H-indazole formic acid salt] | 14700 nM |
| CCc1nn(-c2ccccc2)c2nc(C3CCN(C(=O)C4CCNCC4)CC3)nc(O)c12 [Compound 96, [4-(3-Ethyl-4-hydroxy-1-phenyl-1H-pyrazolo[3,4-d]pyrimidin-6-yl)-piperidin-1-yl]-piperidin-4-yl-methanone hydrochloride] | 30000 nM |
| CSc1nn(-c2ccccc2)c2cc(N3CCN(C4CCNCC4)CC3)ccc12 [Compound 23, 3-(Methylthio)-1-phenyl-6-(4-(piperidin-4-yl)piperazin-1-yl)-1H-indazole hydrochloride] | 680 nM |
| CSc1nn(-c2ccccc2)c2cc(C=CC3CCNCC3)ccc12 [Compound 153, 3-Methylsulfanyl-1-phenyl-6-(2-piperidin-4-yl-vinyl)-1H-indazole] | 400 nM |
| CCc1nn(-c2ccccc2)c2nc(C3CCN(C4CCNCC4)CC3)nc(O)c12 [Compound 95, 6-[1,4′]Bipiperidinyl-4-yl-3-ethyl-1-phenyl-1H-pyrazolo[3,4-d]pyrimidin-4-ol hydrochloride] | 11500 nM |
| CSc1nn(-c2ccccc2)c2cc(N3CCN(C(=O)C4CCCNC4)CC3)ccc12 (stereo not shown) [Compound 16, 4-(3-Methylsulfanyl-1-phenyl-1H-indazol-6-yl)-piperazin-1-yl]-piperidin-3-yl-methanone hydrochloride] | 2890 nM |

| Structure (SMILES) | IC50 |
| --- | --- |
| CSc1nn(-c2cccc(C)c2)c2cc(C3=CCNCC3)ccc12 [Compound 147, 3-Methylsulfanyl-6-(1,2,3,6-tetrahydropyridin-4-yl)-1-(3-methylphenyl)-1H-indazole] | 30 nM |
| CSc1nn(-c2ccccc2)c2cc(NC(=O)c3cccnc3)ccc12 [Compound 14, N-(3-(Methylthio)-1-phenyl-1H-indazol-6-yl)nicotinamide] | 230 nM |
| CSc1nn(-c2cccc(C)c2)c2cc(N3CCNCC3)ccc12 [Compound 118, 3-Methylsulfanyl-6-piperazin-1-yl-1-m-tolyl-1H-indazole] | 4120 nM |
| CSc1nn(-c2ccccc2)c2cc(C=Cn3cncn3)ccc12 [Compound 152, 3-Methylsulfanyl-1-phenyl-6-(2-[1,2,4]triazol-1-yl-vinyl)-1H-indazole] | > 10000 nM |
| CCc1nn(-c2ccccc2)c2cc(N3CCNC(C)C3)ccc12 (stereo not shown) [Compound 56, 3-Ethyl-6-(3-methylpiperazin-1-yl)-1-phenyl-1H-indazole] | 860 nM |
| Cc1nn(-c2ccccc2)c2cc(N3CCN(c4ccncc4)CC3)ccc12 [Compound 65, 3-Methyl-1-phenyl-6-(4-(pyridin-4-yl)piperazin-1-yl)-1H-indazole hydrochloride] | 7730 nM |
| CSc1nn(-c2ccccc2)c2cc(N3CCN(C4CCNC4)CC3)ccc12 (stereo not shown) [Compound 22, 3-(Methylthio)-1-phenyl-6-(4-(pyrrolidin-3-yl)piperazin-1-yl)-1H-indazole hydrochloride] | 4450 nM |
| CSc1nn(-c2ccccc2)c2cc(C=CC3CCCNC3)ccc12 (stereo not shown) [Compound 176, 3-Methylsulfanyl-1-phenyl-6-(2-piperidin-3-yl-vinyl)-1H-indazole] | 790 nM |
| COc1cc(-c2ccc(N3CCNCC3)cc2)nc2c1c(C)nn2-c1ccccc1 [Compound 99, 4-Methoxy-3-methyl-1-phenyl-6-(4-piperazin-1-yl-phenyl)-1H-pyrazolo[3,4-b]pyridine] | 600 nM |
| CSc1nn(-c2ccccc2)c2cc(N3CCNCC3)ccc12 [Compound 1, 3-(Methylsulfanyl)-1-phenyl-6-piperazin-1-yl-1H-indazole HCl salt] | 560 nM |
| Cc1nn(-c2ccccc2)c2cc(N3CC(N4CCNCC4)C3)ccc12 [Compound 60, 3-Methyl-1-phenyl-6-(3-(piperazin-1-yl)azetidin-1-yl)-1H-indazole hydrochloride] | 2300 nM |
| CSc1nn(-c2ccccc2)c2cc(C=Cc3ccc(C)nc3)ccc12 [Compound 178, 6-[2-(6-Methyl-pyridin-3-yl)-vinyl]-3-methylsulfanyl-1-phenyl-1H-indazole] | > 10000 nM |
| COc1nn(-c2ccccc2)c2cc(N3CCN(C4CCNC4)CC3)ccc12 (stereo not shown) [Compound 75, 3-Methoxy-1-phenyl-6-(4-(pyrrolidin-3-yl)piperazin-1-yl)-1H-indazole hydrochloride] | 310 nM |
| CCc1nn(-c2ccccc2)c2cc(N3CCN(C4CCNCC4)C3=O)ccc12 [Compound 49, 1-(3-Ethyl-1-phenyl-1H-indazol-6-yl)-3-(piperidin-4-yl)imidazolidin-2-one hydrochloride] | 1800 nM |
| CSc1nn(-c2ccccc2)c2cc(N3CCN(Cc4ccncc4)CC3)ccc12 [Compound 18, 3-Methylsulfanyl-1-phenyl-6-(4-pyridin-4-ylmethyl-piperazin-1-yl)-1H-indazole Hydrochloride] | 2030 nM |
| COc1nn(-c2ccccc2)c2cc(-c3ccc(N4CCNCC4)cc3)ccc12 [Compound 78, 3-Methoxy-1-phenyl-6-(4-(piperazin-1-yl)phenyl)-1H-indazole hydrochloride] | 4420 nM |
| CSc1nn(-c2ccccc2)c2cc(N3CCN(C(=O)C4CCCN4)CC3)ccc12 (stereo not shown) [Compound 33, (4-(3-(Methylthio)-1-phenyl-1H-indazol-6-yl)piperazin-1-yl)(pyrrolidin-2-yl)methanone hydrochloride] | 5340 nM |
| Cc1nn(-c2ccccc2)c2cc(N3CCN(C4CCNCC4)CC3)ccc12 [Compound 64, 3-Methyl-1-phenyl-6-(4-(piperidin-4-yl)piperazin-1-yl)-1H-indazole hydrochloride] | 9060 nM |
| CSc1nn(-c2ccc(C)cc2)c2cc(C3=CCNCC3)ccc12 [Compound 184, 3-Methylsulfanyl-6-(1,2,3,6-tetrahydro-pyridin-4-yl)-1-p-tolyl-1H-indazole] | 40 nM |
| CSc1nn(-c2ccccc2)c2cc(N3CCN(c4ccncc4)CC3)ccc12 [Compound 29, 3-(Methylthio)-1-phenyl-6-(4-(pyridin-4-yl)piperazin-1-yl)-1H-indazole] | 300 nM |
| CSc1nn(-c2ccccc2)c2cc(C(=O)C3CCNCC3)ccc12 [Compound 142, (3-Methylsulfanyl-1-phenyl-1H-indazol-6-yl)-piperidin-4-yl-methanone] | 670 nM |

Source: US8822447B2, “Indazole compounds useful as ketohexokinase inhibitors” (Janssen Pharmaceutica NV, priority 2010, dated 2014)
